From patent US10640527B2, “Mesitylene-cored amphiphiles and uses thereof” (Industry-University Cooperation Foundation Hanyang …, priority 2016, dated 2020)
Values joined by “and” are separate entries in the source; they are usually repeats but may differ in a detail not shown here. Equal values may be shown once.

How the values were obtained:
[1] = target: T1, melibiose permease (MelBSt) (Salmonella typhimurium, UniProt P30878); experiment: MelBSt extraction from membranes and thermal stability, SDS-PAGE and Western blotting; assay type: biochemical; details: 1.5 wt %, 90 minutes; for MelBSt protein extraction efficiency compared with DDM: 45° C.; for MelBSt extraction ability compared with DDM: 55° C.
T1 construct: made in house; host or cells: DW2 cells (ΔmelB and ΔlacZY), Salmonella typhimurium DW2
Method: An experiment for measuring the structural stability of Salmonella typhimurium melibiose permease (MelBSt) according to MGAs in an aqueous solution was performed. After MelBSt proteins were extracted from a membrane using MGAs or DDM, the amount and structure of extracted proteins were analyzed by SDS-PAGE and western blotting. The concentration of used amphiphiles was 1.5 wt %, and proteins were extracted at four different temperatures of 0, 45, 55 and 65° C. to evaluate both the protein extraction efficiency and stabilizing ability of a compound. A membrane sample which had not been treated with MGAs or DDM was used as a control group.
Specifically, MelBSt stability solubilized in DDM or MGAs was evaluated according to a method described in 2010 in a research article (P. S. Chae et al., Nat. Methods 2010, 7, 1003-1008.) by the inventors of the present invention. Proteins (MelBSt) were produced using plasmid pK95ΔAHB/WT MelBSt/CH10 encoding the wild-type MelB with a 6-His tag at the C-terminus and Salmonella typhimurium DW2 cells (ΔmelB and ΔlacZY). Cell growth and membrane preparation was performed according to a method described in a research article (Nat. Commun. 2014, 5, 3009) by A. S. Ethayathulla, et al. A protein assay was carried out using a Micro BCA kit (Thermo Scientific, Rockford, Ill.). In order to measure protein solubilization, a membrane sample (final protein concentration was 10 mg/mL) containing MelBSt was incubated with a solubilization buffer (20 mM sodium phosphate, pH 7.5, 200 mM NaCl, 10% glycerol and 20 mM melibiose) and 1.5% (w/v) DDM or MGA (MGA-C10, MGA-C11, MGA-C12, MGA-C13, MGA-C14 or MGA-C15) at four different temperatures of 0, 45, 55 and 65° C. for 90 minutes. After ultracentrifugation at 355,590 g in a Beckman Optima™ MAX Ultracentrifuge using a TLA-100 rotor for 45 min at 4° C., 20 μg of a protein was separated by SDS-16% PAGE and immunoblotted with a Penta-His-HRP antibody (Qiagen, Germantown, Md.). MelBSt was measured by an ImageQuant LAS 4000 Biomolecular Imager (GE Healthcare Life Sciences) using a SuperSignal West Pico chemiluminescent substrate.

[2] = target: T2, human β2-adrenergic receptor (β2AR) (Homo sapiens, UniProt P07550); experiment: Size exclusion chromatography (SEC) of β2AR solubilized in amphiphile; details: for SEC profile of solubilized β2AR: amphiphile-free running buffer
Method: A size exclusion chromatography (SEC) experiment was conducted to determine the β2AR crystallization effect and β2AR stability preservation effect by MGA-C13 or DDM.
Specifically, β2AR purified by 0.1% DDM was mixed with a DDM or MGA-C13 buffer (20 mM HEPES pH 7.5, 100 mM NaCl, 0.2% of each amphiphile) and incubated for 30 minutes. The sample was applied to a Superdex-200 10/300 GL column (GE Healthcare Life Sciences) at a rate of 0.5 ml/min, fluorescence was recorded at 345 nm, and an […] wavelength was 295 nm. A running buffer contained 20 mM HEPES (pH 7.5) and 100 mM NaCl, and contained each amphiphile (DDM or MGA-C13) or not.

[3] = Critical micelle concentration by fluorophore encapsulation using diphenylhexatriene (DPH); assay type: physicochemical; details: aqueous solution
Method: A method of measuring a CMC is not particularly limited, and those methods widely known in the related field may be used. For example, a CMC may be measured by a fluorophore encapsulation method using diphenylhexatriene (DPH).
(§1) Specifically, a CMC was measured by a fluorophorescent encapsulation method using diphenylhexatriene (DPH) and an Rh of a micelle formed by each formulation (1.0 wt %) was measured using a dynamic light scattering (DLS) experiment.

[4] = target: T3, uric acid-xanthine/H+ symporter (UapA) (Emericella nidulans, UniProt Q07307, G411V); experiment: UapA structural (thermal) stability, CPM assay; assay type: biochemical, Aspergillus nidulans
T3 construct: GFP; made in house; host or cells: Saccharomyces cerevisiae FGY217
Method: An experiment for measuring the structural stability of uric acid-xanthine/H^+ symporter (UapA) solubilized in MGAs in an aqueous solution was performed. The structural stability of UapA was measured using a CPM assay, and was measured at MGAs and DDM concentrations of (a) CMC+0.04 wt %, or (b) CMC+0.2 wt %.
Specifically, a UapA protein is a uric acid-xanthine/H^+ symporter in Aspergillus nidulans. Protein stability was measured by fluorescence spectroscopy using N-[4-(7-diethylamino-4-methyl-3-coumarinyl)phenyl]maleimide (CPM) which is a sulfhydryl-specific fluorophore. A free sulfhydryl group of a cysteine residue is in the interior of a protein, but becomes accessible to a solvent upon protein unfolding. CPM becomes fluorescent by a reaction with the free thiol, and thus provides as a protein unfolding sensor. In order to measure thermal stability, first, UapAG411V1-11 was expressed in the Saccharomyces cerevisiae FGY217 strain by fusion with GFP, and separated in a sample buffer (20 mM Tris (pH 7.5), 150 mM NaCl, 0.03% DDM and 1 mM xanthine) according to a method described in a research article (Mol. Membr. Biol. 2013, 30, 32-42) by J. Leung et al. A UapA protein was concentrated to about 10 mg/ml using a 100 kDa molecular weight cut-off filter (Millipore). The concentrated protein was diluted to a ratio of 1:150 with each buffer including DDM or MGA (MGA-C10, MGA-C11, MGA-C12, MGA-C13, MGA-C14 or MGA-C15) at a concentration of CMC+0.04 wt % or CMC+0.2 wt % in a Greiner 96-well plate. A CPM dye (Invitrogen) stored in DMSO (Sigma) was diluted with a dye buffer (20 mM Tris (pH 7.5), 150 mM NaCl, 0.03% DDM and 5 mM EDTA), and 3 μl of the diluted dye was added to each protein sample. The reaction mixture was incubated at 40° C. for 120 minutes. Fluorescence emission was monitored using a microplate spectrofluorometer, with an excitation wavelength at 387 nm and an emission wavelength at 463 nm. Relative maximum fluorescence was used to calculate a percentage of relative folded protein remaining after 120 minutes at 40° C. Relative unfolded proteins were plotted against time using GraphPad Prism.
Specifically, a UapA stabilization effect was evaluated by the same method as in Experimental Example 2 using MGA-C13, MGA-C14, MNG-3 or DDM at a concentration of (a) CMC+0.04 wt % or (b) CMC+0.2 wt %.

[5] = Hydrodynamic radius / size distribution of micelles by dynamic light scattering (DLS); assay type: physicochemical; details: 1.0 wt % amphiphile
Method: A method of measuring a radius of the micelle is not particularly limited, and those methods widely known in the related field may be used, for example, a dynamic light scattering (DLS) experiment may be used for measurement.
as §1

[6] = test system: leucine transporter (LeuT); experiment: LeuT long-term stability, [3H]-Leu binding by scintillation proximity assay (SPA); assay type: biochemical, Aquifex aeolicus; details: after 12 days of incubation at room temperature
Method: An experiment for measuring the structural stability of LeuT proteins according to MGAs (MGA-C11, MGA-C12, MGA-C13, MGA-C14 and MGA-C15) was performed. Each amphiphile was used at a concentration of (a) CMC+0.04 wt % or (b) CMC+0.2 wt %, a ligand-binding activity of LeuT was measured by scintillation proximity assay (SPA) using [^3H]-Leucine. The measurement was performed at regular intervals at room temperature during 12 days of incubation.
Specifically, a thermophilic bacteria Aquifex aeolicus-derived wild type LeuT was purified using a previously described method (Nature, G. Deckert et al., 1998, 392, 353-358). To sum up, the LeuT was expressed in E. coli C41 (DE3) cultured in a lysogeny broth medium supplemented with 0.1 mg/ml ampicillin. Expression of proteins was induced by adding isopropyl β-D-thiogalactopyranoside to a final concentration of 0.1 mM.
A cell membrane was separated from a crushed cell (Constant Systems Homogenizers, Kennesaw, Ga.), and solubilized in 1% (w/v) n-dodecyl-β-D-maltopyranoside (DDM; Affymetrix, Santa Clara, Calif.). After solubilization, LeuT was fixed in a Ni^2+-NTA resin (Life Technologies, Denmark), and eluted in 20 mM Tris-HCl (pH 7.5), 199 mM KCl, 1 mM NaCl, 0.05% (w/v) DDM and 300 mM imidazole. Thereafter, purified LeuT (about 1.5 mg/ml) was diluted tenfold with a buffer supplemented with MGA (MGA-C11, MGA-C12, MGA-C13, MGA-C14 or MGA-C15) or DDM to the final concentration of CMC+0.04% (w/v) or CMC+0.2% (w/v) while excluding DDM and imidazole from the above-described buffers. Protein samples were stored at room temperature for 12 days, and protein activity was determined by measuring [^3H]-Leu binding by SPA at a specified time. SPA was carried out using 450 mM NaCl and buffers containing each MGA, and a SPA reaction was performed in the presence of 20 nM [^3H]-Leu and 1.25 mg/ml copper chelate (His-Tag) YSi beads (Perkin Elmer, Denmark). [^3H]-Leu binding was measured using a MicroBeta liquid scintillation counter (Perkin Elmer).

[7] = target: T2, human β2-adrenergic receptor (β2AR); experiment: β2AR stability, [3H]-dihydroalprenolol radioligand binding; assay type: biochemical; details: after three days of incubation at room temperature, CMC+0.2 wt %
Method: The activity of a receptor (β2AR) purified by DDM or MGAs (MGA-C12, MGA-C13 and MGA-C14) was measured by binding of [^3H]-dihydroalprenolol ([^3H]-DHA).
Specifically, the following method was used in a radioligand binding experiment. β2AR was purified by 0.1% DDM. The DDM-purified β2AR was diluted with a buffer solution containing each amphiphile (DDM or an MGA) such that the final concentration of the amphiphile was CMC+0.2 wt %. β2AR dissolved in each amphiphile was stored at room temperature for three days, and incubated at room temperature for 30 minutes using 10 nM-radioactive [^3H]-dihydroalprenolol (DHA) to measure ligand binding thereof at regular intervals. The mixture was loaded into a G-50 column, and passing liquid was collected using a binding buffer (20 mM HEPES pH 7.5, 100 mM NaCl supplemented with 0.5 mg/ml BSA) and 15 ml of a scintillation fluid was added thereto. Receptor-coupled [^3H]-DHA was measured by a scintillation counter (Beckman). Non-specific binding of [^3H]-DHA was measured by adding 1 μM of alprenolol (Sigma) in the same reaction. Binding of [^3H]-DHA was measured by column graphs.

Water-solubility = assay type: physicochemical; details: in water

T1 sequence (P30878 whole entry): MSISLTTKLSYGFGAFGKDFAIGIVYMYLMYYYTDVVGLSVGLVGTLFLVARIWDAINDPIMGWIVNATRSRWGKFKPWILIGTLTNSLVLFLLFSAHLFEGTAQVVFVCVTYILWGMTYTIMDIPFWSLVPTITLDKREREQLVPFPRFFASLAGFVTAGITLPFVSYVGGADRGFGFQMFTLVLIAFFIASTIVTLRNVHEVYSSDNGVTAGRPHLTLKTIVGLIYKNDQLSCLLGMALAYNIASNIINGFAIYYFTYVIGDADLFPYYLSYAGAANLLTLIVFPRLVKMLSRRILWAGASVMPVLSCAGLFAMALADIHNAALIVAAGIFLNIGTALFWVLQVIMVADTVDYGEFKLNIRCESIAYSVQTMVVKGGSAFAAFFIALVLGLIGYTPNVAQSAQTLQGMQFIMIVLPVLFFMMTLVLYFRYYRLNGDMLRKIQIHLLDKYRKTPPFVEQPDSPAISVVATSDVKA
T2 sequence (P07550 whole entry): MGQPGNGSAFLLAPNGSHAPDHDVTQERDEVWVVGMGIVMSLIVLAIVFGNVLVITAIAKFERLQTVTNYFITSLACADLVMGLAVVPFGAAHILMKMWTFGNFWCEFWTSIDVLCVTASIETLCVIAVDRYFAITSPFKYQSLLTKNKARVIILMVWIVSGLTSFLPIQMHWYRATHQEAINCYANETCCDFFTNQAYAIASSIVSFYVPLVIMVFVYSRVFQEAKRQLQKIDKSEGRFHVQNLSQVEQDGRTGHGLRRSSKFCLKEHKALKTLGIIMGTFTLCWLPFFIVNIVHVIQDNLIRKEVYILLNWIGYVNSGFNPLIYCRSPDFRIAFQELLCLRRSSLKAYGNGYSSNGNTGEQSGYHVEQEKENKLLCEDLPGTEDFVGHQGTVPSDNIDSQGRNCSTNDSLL
T3 sequence (Q07307 12-574 G411V): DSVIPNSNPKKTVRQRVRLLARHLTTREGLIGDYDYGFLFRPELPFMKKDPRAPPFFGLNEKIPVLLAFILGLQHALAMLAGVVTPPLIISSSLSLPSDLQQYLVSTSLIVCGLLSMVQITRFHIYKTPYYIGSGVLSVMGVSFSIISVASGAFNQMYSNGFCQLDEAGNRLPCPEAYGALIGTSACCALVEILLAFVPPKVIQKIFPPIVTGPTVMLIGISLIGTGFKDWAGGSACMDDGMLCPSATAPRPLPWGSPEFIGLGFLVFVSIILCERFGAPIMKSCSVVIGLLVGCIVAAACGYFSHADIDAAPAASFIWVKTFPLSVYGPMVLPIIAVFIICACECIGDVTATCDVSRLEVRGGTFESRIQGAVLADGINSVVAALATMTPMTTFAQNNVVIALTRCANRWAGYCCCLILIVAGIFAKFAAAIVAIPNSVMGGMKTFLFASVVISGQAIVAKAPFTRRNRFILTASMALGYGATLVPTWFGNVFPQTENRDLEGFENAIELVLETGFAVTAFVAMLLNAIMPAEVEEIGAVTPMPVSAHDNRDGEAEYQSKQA

| SMILES | MelBSt protein extraction efficiency compared with DDM [1] | MelBSt extraction ability compared with DDM [1] | size of protein-detergent complexes (PDCs) with β2AR ([2]; SEC, amphiphile-containing buffer, 0.2% amphiphile) | SEC profile of solubilized β2AR [2] | CMC [3] [µM] | CMC (wt %) [3] [wt %] | UapA stabilization effect compared with MNG-3 ([4]; CMC+0.04 wt % or CMC+0.2 wt %, FIG. 25) | effect in maintaining folded UapA, ranking among MGAs ([4]; CMC+0.2 wt %, 40° C., 120 minutes) | Rh (nm), hydrodynamic radius of micelle [5] | MelBSt protein extraction efficiency ([1]; 0° C. and 45° C.) | MelBSt protein extracted ([1]; 55° C. or more) | LeuT ligand-binding activity retained, % of initial activity [6] [%] | β2AR receptor (ligand binding) activity retained [7] [%] | water-solubility (Water-solubility) [%] |
| --- | --- | --- | --- | --- | --- | --- | --- | --- | --- | --- | --- | --- | --- | --- |
| CCCCCCCCCCCCCC(CO[C@@H]1OC(CO)[C@@H](O)C(O)C1O)(CO[C@@H]1OC(CO)[C@@H](O)C(O)C1O)Cc1cc(CC(CCCCCCCCCCCCC)(CO[C@@H]2OC(CO)[C@@H](O)C(O)C2O)CO[C@@H]2OC(CO)[C@@H](O)C(O)C2O)cc(CC(CCCCCCCCCCCCC)(CO[C@@H]2OC(CO)[C@@H](O)C(O)C2O)CO[C@@H]2OC(CO)[C@@H](O)C(O)C2O)c1 (some centres unmarked) [MGA-C13] | same level of protein extraction efficiency as DDM | higher MelBSt extraction ability than DDM | smaller protein-detergent complexes (PDCs) than DDM | almost no change | ~3 | ~0.0006 | far greater UapA stabilization effect than MNG-3 | had the highest effect | 3.2 ± 0.03 nm | – | – | – | – | – |
| CCCCCCCCCCCCO[C@@H]1O[C@H](CO)[C@@H](O[C@H]2O[C@H](CO)[C@@H](O)[C@H](O)[C@H]2O)[C@H](O)[C@H]1O [DDM, n-dodecyl-β-D-maltopyranoside, reference compound] | – | – | – | largely decreased monodispersed peak intensity (˜13 mL) and a new broad aggregate peak (˜10 mL) | ~170 | ~0.0087 | – | – | 3.4 nm and 3.4 ± 0.02 nm | high protein extraction efficiency | almost no protein was observed | ~40 | ~15 | – |
| CCCCCCCCCCCCCCCC(CO[C@@H]1OC(CO)[C@@H](O)C(O)C1O)(CO[C@@H]1OC(CO)[C@@H](O)C(O)C1O)Cc1cc(CC(CCCCCCCCCCCCCCC)(CO[C@@H]2OC(CO)[C@@H](O)C(O)C2O)CO[C@@H]2OC(CO)[C@@H](O)C(O)C2O)cc(CC(CCCCCCCCCCCCCCC)(CO[C@@H]2OC(CO)[C@@H](O)C(O)C2O)CO[C@@H]2OC(CO)[C@@H](O)C(O)C2O)c1 (some centres unmarked) [MGA-C15] | same level of protein extraction efficiency as DDM | higher MelBSt extraction ability than DDM | – | – | ~1.5 | ~0.0003 | – | – | 3.6 ± 0.02 nm | – | – | – | – | ≥ 20 |
